# Results: patent publication US20090105217A1, “2-PHENYL-5-AMINO-1,3,4-OXADIAZOLES AND THEIR USE AS NICOTINIC ACETYLCHOLINE RECEPTOR LIGANDS” (priority 2007, published 2009)
# Biological target: T1, human α7 nAChR (Homo sapiens, UniProt P36544)
# T1 construct: host or cells: GH4C1 cells (pituitary tumor, immortalized cell line)
# Test: α7 nAChR FLIPR (Fluorometric Imaging Plate Reader) Ca2+ assay, agonist EC50
# Format: cell-based
# Conditions: GH4C1 cells stably transfected with human α7 nAChR; Fluo-4 Ca2+ fluorescence; Examples 194 to 205 tested as the HCl salt; read-out: pEC50 value (negative logarithm of the agonist EC50) (converted)
# Method in brief: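 GH4C1 cells stably expressing human α7 nAChR, loaded with 2 μM Fluo-4 for 45–60 min at 37 °C in HEPES buffer pH 7.3 with 2 mM CaCl2 and 2.5 mM probenecid. Peak calcium fluorescence (ex 488, em 510–580 nm) after compound addition fitted for agonist EC50, reported as pEC50.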
# T1 sequence (P36544 23-502): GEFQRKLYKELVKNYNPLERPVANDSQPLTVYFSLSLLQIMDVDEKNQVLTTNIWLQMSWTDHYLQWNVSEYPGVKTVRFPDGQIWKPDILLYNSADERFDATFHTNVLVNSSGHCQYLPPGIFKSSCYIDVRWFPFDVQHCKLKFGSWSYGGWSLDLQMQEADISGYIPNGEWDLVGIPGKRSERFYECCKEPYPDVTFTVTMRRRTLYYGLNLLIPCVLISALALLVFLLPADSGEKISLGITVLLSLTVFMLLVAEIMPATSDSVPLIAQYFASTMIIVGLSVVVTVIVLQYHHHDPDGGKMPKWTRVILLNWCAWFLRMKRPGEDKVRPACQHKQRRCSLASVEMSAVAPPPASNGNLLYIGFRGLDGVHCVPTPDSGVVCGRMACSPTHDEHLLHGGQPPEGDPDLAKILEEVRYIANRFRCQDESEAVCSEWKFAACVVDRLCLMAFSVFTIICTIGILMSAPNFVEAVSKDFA
row,EC50,Structure (SMILES)
1,≤ 100 nM,"O=C(Nc1ccc(-c2nnc(NCCCCN3CCCC3)o2)cc1)c1ccccc1 [Example 115, N-[4-(5-{[4-(1-pyrrolidinyl)butyl]amino}-1,3,4-oxadiazol-2-yl)phenyl]benzamide]"
2,≤ 1000 nM,"O=C(Nc1ccc(-c2nnc(NCCCCN3CCOCC3)o2)cc1)c1ccccc1 [Example 116, N-[4-(5-{[4-(4-morpholinyl)butyl]amino}-1,3,4-oxadiazol-2-yl)phenyl]benzamide]"
3,≤ 1000 nM,"O=C(Nc1ccc(-c2nnc(NCCCN3CCOCC3)o2)cc1)c1ccccc1 [Example 117, N-[4-(5-{[3-(4-morpholinyl)propyl]amino}-1,3,4-oxadiazol-2-yl)phenyl]benzamide]"
4,≤ 1000 nM,"CCN(CC)CCCNc1nnc(-c2ccc(NC(=O)c3ccccc3)cc2)o1 [Example 118, N-[4-(5-{[3-(diethylamino)propyl]amino}-1,3,4-oxadiazol-2-yl)phenyl]benzamide]"
5,≤ 100 nM,"CCN(CC)CCCCNc1nnc(-c2ccc(NC(=O)c3ccccc3)cc2)o1 [Example 119, N-[4-(5-{[4-(diethylamino)butyl]amino}-1,3,4-oxadiazol-2-yl)phenyl]benzamide]"
6,≤ 100 nM,"COc1cc(NC(=O)c2ccccc2F)ccc1-c1nnc(NCCCN2CCN3CCC2CC3)o1 [Example 120, N-[4-(5-{[3-(1,4-diazabicyclo[3.2.2]non-4-yl)propyl]amino}-1,3,4-oxadiazol-2-yl)-3-(methyloxy)phenyl]-2-fluorobenzamide]"
7,≤ 100 nM,"O=C(Nc1ccc(-c2nnc(NCCCN3CCN4CCC3CC4)o2)c(F)c1)c1ccccc1F [Example 121, N-[4-(5-{[3-(1,4-diazabicyclo[3.2.2]non-4-yl)propyl]amino}-1,3,4-oxadiazol-2-yl)-3-fluorophenyl]-2-fluorobenzamide]"
8,≤ 100 nM,"COc1cc(NC(=O)c2ccccc2)ccc1-c1nnc(NCCCN2CCN3CCC2CC3)o1 [Example 122, N-[4-(5-{[3-(1,4-diazabicyclo[3.2.2]non-4-yl)propyl]amino}-1,3,4-oxadiazol-2-yl)-3-(methyloxy)phenyl]benzamide]"
9,≤ 100 nM,"O=C(Nc1ccc(-c2nnc(NCCCN3CCN4CCC3CC4)o2)cc1)c1ccccc1 [Example 123, N-[4-(5-{[3-(1,4-diazabicyclo[3.2.2]non-4-yl)propyl]amino}-1,3,4-oxadiazol-2-yl)phenyl]benzamide]"
10,≤ 100 nM,"O=C(Nc1ccc(-c2nnc(NCCCN3CCN4CCC3CC4)o2)c(F)c1)c1ccccc1 [Example 124, N-[4-(5-{[3-(1,4-diazabicyclo[3.2.2]non-4-yl)propyl]amino}-1,3,4-oxadiazol-2-yl)-3-fluorophenyl]benzamide]"
11,≤ 100 nM,"O=C(Nc1ccc(-c2nnc(NCCCN3CCN4CCC3CC4)o2)c(Cl)c1)c1ccccc1F [Example 125, N-[3-chloro-4-(5-{[3-(1,4-diazabicyclo[3.2.2]non-4-yl)propyl]amino}-1,3,4-oxadiazol-2-yl)phenyl]-2-fluorobenzamide]"
12,≤ 1000 nM,"COc1cc(NC(=O)c2ccccc2F)ccc1-c1nnc(NCCCN2CCCC2)o1 [Example 126, 2-fluoro-N-[3-(methyloxy)-4-(5-{[3-(1-pyrrolidinyl)propyl]amino}-1,3,4-oxadiazol-2-yl)phenyl]benzamide]"
13,≤ 100 nM,"COc1cc(NC(=O)c2ccccc2F)ccc1-c1nnc(NCCCCN2CCCC2)o1 [Example 127, 2-fluoro-N-[3-(methyloxy)-4-(5-{[4-(1-pyrrolidinyl)butyl]amino}-1,3,4-oxadiazol-2-yl)phenyl]benzamide]"
14,≤ 1000 nM,"CC1(C)CCN(CCCNc2nnc(-c3ccc(NC(=O)c4ccccc4F)cc3)o2)CC1 [Example 135, N-[4-(5-{[3-(4,4-dimethyl-1-piperidinyl)propyl]amino}-1,3,4-oxadiazol-2-yl)phenyl]-2-fluorobenzamide]"
15,≤ 1000 nM,"CCC(C)N(C)CCCNc1nnc(-c2ccc(NC(=O)c3ccccc3F)cc2)o1 (stereo not drawn) [Example 136, 2-fluoro-N-{4-[5-({3-[methyl(1-methylpropyl)amino]propyl}amino)-1,3,4-oxadiazol-2-yl]phenyl}benzamide]"
16,≤ 1000 nM,"CN(CCCNc1nnc(-c2ccc(NC(=O)c3ccccc3F)cc2)o1)C1CCCC1 [Example 137, N-{4-[5-({3-[cyclopentyl(methyl)amino]propyl}amino)-1,3,4-oxadiazol-2-yl]phenyl}-2-fluorobenzamide]"
17,≤ 100 nM,"COc1cc(NC(=O)c2ccccc2F)ccc1-c1nnc(NCCCCN2CCC(F)CC2)o1 [Example 145, 2-fluoro-N-[4-(5-{[4-(4-fluoro-1-piperidinyl)butyl]amino}-1,3,4-oxadiazol-2-yl)-3-(methyloxy)phenyl]benzamide]"
18,≤ 1000 nM,"O=C(Nc1ccc(-c2nnc(NCCCN3CCCC3)o2)cc1)C1CCCCC1 [Example 146, N-[4-(5-{[3-(1-pyrrolidinyl)propyl]amino}-1,3,4-oxadiazol-2-yl)phenyl]cyclohexanecarboxamide]"

row,EC50,Structure (SMILES)
1,≤ 100 nM,"O=C(Nc1ccc(-c2nnc(NCCCCN3CCCC3)o2)cc1)C1CCCCC1 [Example 147, N-[4-(5-{[4-(1-pyrrolidinyl)butyl]amino}-1,3,4-oxadiazol-2-yl)phenyl]cyclohexanecarboxamide]"
2,≤ 1000 nM,"O=C(Nc1ccc(-c2nnc(NCCCCN3CCOCC3)o2)cc1)C1CCCCC1 [Example 148, N-[4-(5-{[4-(4-morpholinyl)butyl]amino}-1,3,4-oxadiazol-2-yl)phenyl]cyclohexanecarboxamide]"
3,≤ 1000 nM,"CCN(CC)CCCNc1nnc(-c2ccc(NC(=O)C3CCCCC3)cc2)o1 [Example 149, N-[4-(5-{[3-(diethylamino)propyl]amino}-1,3,4-oxadiazol-2-yl)phenyl]cyclohexanecarboxamide]"
4,≤ 1000 nM,"CCN(CC)CCCCNc1nnc(-c2ccc(NC(=O)C3CCCCC3)cc2)o1 [Example 150, N-[4-(5-{[4-(diethylamino)butyl]amino}-1,3,4-oxadiazol-2-yl)phenyl]cyclohexanecarboxamide]"
5,≤ 100 nM,"O=C(Nc1ccc(-c2nnc(NCCCCN3CCCC3)o2)c(Cl)c1)c1ccccc1F [Example 153, N-[3-chloro-4-(5-{[4-(1-pyrrolidinyl)butyl]amino}-1,3,4-oxadiazol-2-yl)phenyl]-2-fluorobenzamide]"
6,≤ 100 nM,"O=C(Nc1ccc(-c2nnc(NCCCCN3CCOCC3)o2)c(Cl)c1)c1ccccc1F [Example 154, N-[3-chloro-4-(5-{[4-(4-morpholinyl)butyl]amino}-1,3,4-oxadiazol-2-yl)phenyl]-2-fluorobenzamide]"
7,≤ 1000 nM,"CCN(CC)CCCNc1nnc(-c2ccc(NC(=O)c3ccccc3F)cc2Cl)o1 [Example 155, N-[3-chloro-4-(5-{[3-(diethylamino)propyl]amino}-1,3,4-oxadiazol-2-yl)phenyl]-2-fluorobenzamide]"
8,≤ 100 nM,"CCN(CC)CCCCNc1nnc(-c2ccc(NC(=O)c3ccccc3F)cc2Cl)o1 [Example 156, N-[3-chloro-4-(5-{[4-(diethylamino)butyl]amino}-1,3,4-oxadiazol-2-yl)phenyl]-2-fluorobenzamide]"
9,≤ 1000 nM,"O=C(Nc1ccc(-c2nnc(NCCCN3CCCC3)o2)c(Cl)c1)C1CCCCC1 [Example 157, N-[3-chloro-4-(5-{[3-(1-pyrrolidinyl)propyl]amino}-1,3,4-oxadiazol-2-yl)phenyl]cyclohexanecarboxamide]"
10,≤ 100 nM,"O=C(Nc1ccc(-c2nnc(NCCCCN3CCCC3)o2)c(Cl)c1)C1CCCCC1 [Example 158, N-[3-chloro-4-(5-{[4-(1-pyrrolidinyl)butyl]amino}-1,3,4-oxadiazol-2-yl)phenyl]cyclohexanecarboxamide]"
11,≤ 1000 nM,"CCN(CC)CCCNc1nnc(-c2ccc(NC(=O)C3CCCCC3)cc2Cl)o1 [Example 159, N-[3-chloro-4-(5-{[3-(diethylamino)propyl]amino}-1,3,4-oxadiazol-2-yl)phenyl]cyclohexanecarboxamide]"
12,≤ 1000 nM,"CCN(CC)CCCCNc1nnc(-c2ccc(NC(=O)C3CCCCC3)cc2Cl)o1 [Example 160, N-[3-chloro-4-(5-{[4-(diethylamino)butyl]amino}-1,3,4-oxadiazol-2-yl)phenyl]cyclohexanecarboxamide]"
13,≤ 1000 nM,"O=C(Nc1ccc(-c2nnc(NCCCCN3CCOCC3)o2)c(Cl)c1)C1CCCCC1 [Example 161, N-[3-chloro-4-(5-{[4-(4-morpholinyl)butyl]amino}-1,3,4-oxadiazol-2-yl)phenyl]cyclohexanecarboxamide]"
14,≤ 1000 nM,"O=C(Nc1ccc(-c2nnc(NCCCN3CCCCC3)o2)c(Cl)c1)C1CCCCC1 [Example 163, N-[3-chloro-4-(5-{[3-(1-piperidinyl)propyl]amino}-1,3,4-oxadiazol-2-yl)phenyl]cyclohexanecarboxamide]"
15,≤ 100 nM,"O=C(Nc1ccc(-c2nnc(NCCCCN3CCCCC3)o2)c(Cl)c1)C1CCCCC1 [Example 164, N-[3-chloro-4-(5-{[4-(1-piperidinyl)butyl]amino}-1,3,4-oxadiazol-2-yl)phenyl]cyclohexanecarboxamide]"
16,≤ 1000 nM,"O=C(Nc1ccc(-c2nnc(NCCCN3CCCC3)o2)c(Cl)c1)c1ccccc1F [Example 165, N-[3-chloro-4-(5-{[3-(1-pyrrolidinyl)propyl]amino}-1,3,4-oxadiazol-2-yl)phenyl]-2-fluorobenzamide]"
17,≤ 1000 nM,"CCc1cc(NC(=O)c2ccccc2F)ccc1-c1nnc(NCCCN2CCOCC2)o1 [Example 167, N-[3-ethyl-4-(5-{[3-(4-morpholinyl)propyl]amino}-1,3,4-oxadiazol-2-yl)phenyl]-2-fluorobenzamide]"
18,≤ 1000 nM,"CCc1cc(NC(=O)c2ccccc2F)ccc1-c1nnc(NCCCCN2CCCCC2)o1 [Example 168, N-[3-ethyl-4-(5-{[4-(1-piperidinyl)butyl]amino}-1,3,4-oxadiazol-2-yl)phenyl]-2-fluorobenzamide]"
